Each structure is given as a SMILES string. Where two headings read alike, the source gives them in different places.

This passage reports remaining activity results from paper PMC7827406, “Structure–Activity Relationship (SAR) Study of Spautin-1 to Entail the Discovery of Novel NEK4 Inhibitors” (International Journal of Molecular Sciences, 2021).

Holding throughout (assay): biochemical
What all share (parameters): Eurofins KinaseProfiler full panel at Km ATP, residual kinase activity (%) relative to DMSO

Test [1] has as its target T1, CRIK(h) (Homo sapiens, UniProt O14578).
T1 construct: gene CIT
The procedure, abridged: (§1)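 Two 10 µM single-concentration screens were run: a competition-binding screen, in which DNA-tagged kinase bound to immobilized ligands was quantified by qPCR, and a radiometric activity panel at Km ATP. Each is expressed as residual kinase activity (%).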

Test [2] concerns the target T2, MST2(h) (Homo sapiens, UniProt Q13188).
T2 construct: gene STK3
T2 sequence (Q13188 1-491): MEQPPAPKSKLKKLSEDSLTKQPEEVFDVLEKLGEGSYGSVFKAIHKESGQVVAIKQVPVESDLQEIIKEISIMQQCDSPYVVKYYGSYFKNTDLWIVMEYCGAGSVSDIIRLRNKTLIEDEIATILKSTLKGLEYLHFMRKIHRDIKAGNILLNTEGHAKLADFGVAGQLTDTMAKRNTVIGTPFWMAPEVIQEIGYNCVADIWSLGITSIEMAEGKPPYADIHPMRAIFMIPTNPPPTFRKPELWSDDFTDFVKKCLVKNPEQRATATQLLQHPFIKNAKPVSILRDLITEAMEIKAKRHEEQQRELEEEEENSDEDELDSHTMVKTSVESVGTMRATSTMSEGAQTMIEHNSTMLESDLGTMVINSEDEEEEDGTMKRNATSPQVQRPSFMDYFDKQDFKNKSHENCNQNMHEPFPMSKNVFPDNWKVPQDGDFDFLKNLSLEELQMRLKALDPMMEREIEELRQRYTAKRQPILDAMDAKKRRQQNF
The procedure, abridged: as §1

The target of test [3] is T3, PKCζ(h) (Homo sapiens, UniProt Q05513).
T3 construct: gene PRKCZ
T3 sequence (Q05513 1-592): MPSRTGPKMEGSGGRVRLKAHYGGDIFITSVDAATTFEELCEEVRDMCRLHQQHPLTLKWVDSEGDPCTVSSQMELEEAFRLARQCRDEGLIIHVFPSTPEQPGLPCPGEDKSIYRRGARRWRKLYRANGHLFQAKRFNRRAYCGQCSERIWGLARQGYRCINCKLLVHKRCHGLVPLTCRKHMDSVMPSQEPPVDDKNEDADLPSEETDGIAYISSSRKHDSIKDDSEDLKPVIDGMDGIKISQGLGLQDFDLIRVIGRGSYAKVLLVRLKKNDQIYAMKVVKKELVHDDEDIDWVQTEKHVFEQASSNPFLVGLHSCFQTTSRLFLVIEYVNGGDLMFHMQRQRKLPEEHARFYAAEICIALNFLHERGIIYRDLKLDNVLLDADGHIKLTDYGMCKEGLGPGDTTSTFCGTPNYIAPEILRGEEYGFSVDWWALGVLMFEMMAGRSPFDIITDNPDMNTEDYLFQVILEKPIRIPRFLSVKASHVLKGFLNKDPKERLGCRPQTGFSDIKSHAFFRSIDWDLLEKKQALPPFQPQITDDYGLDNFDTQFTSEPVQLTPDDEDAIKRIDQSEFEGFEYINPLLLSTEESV
The procedure, abridged:
as §1

Test [4] deals with T4, PI3 Kinase (p110a(H1047R)/p85a)(h) (Homo sapiens, UniProt P42336, H1047R).
T4 construct: gene PIK3CA
The procedure, abridged: as §1

Test [5] has as its target T5, SAPK2a(T106M)(h) (Homo sapiens, UniProt Q16539, T106M).
T5 construct: gene MAPK14
An outline of the steps:
as §1

Test [6] has as its target CDK12/cyclinK(h) (Homo sapiens, UniProt Q9NYV4). The procedure, abridged: as §1
Test [7] has as its target T6, PDGFRβ(h) (Homo sapiens, UniProt P09619).
T6 construct: gene PDGFRB
The procedure, abridged: as §1

Test [8] addresses FGFR2(N549H)(h) (Homo sapiens, UniProt P21802, N549H). The procedure, abridged:
as §1

Test [9] deals with T7, SAPK3(h) (Homo sapiens, UniProt P53778).
T7 construct: gene MAPK12
T7 sequence (P53778 1-367): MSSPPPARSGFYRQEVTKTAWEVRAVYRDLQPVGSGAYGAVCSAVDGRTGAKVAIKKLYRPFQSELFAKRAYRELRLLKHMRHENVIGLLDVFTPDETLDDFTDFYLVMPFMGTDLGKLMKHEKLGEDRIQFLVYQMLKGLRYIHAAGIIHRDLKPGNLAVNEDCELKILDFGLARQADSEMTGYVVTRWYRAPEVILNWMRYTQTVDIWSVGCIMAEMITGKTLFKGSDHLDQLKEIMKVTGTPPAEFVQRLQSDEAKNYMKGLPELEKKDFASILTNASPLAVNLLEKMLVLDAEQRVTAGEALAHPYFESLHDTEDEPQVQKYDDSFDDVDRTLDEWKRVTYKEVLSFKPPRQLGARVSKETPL
An outline of the steps: as §1

The target in test [10] is ErbB4(h) (Homo sapiens, UniProt Q15303). The procedure, abridged:
as §1

[11] abbreviates: read-out: Residual activity (%) 5at.
The mark [12] stands for this setting: read-out: Residual activity (%) 5ay.
Where [13] appears, read: read-out: Residual activity (%) 5as.
[14] abbreviates: read-out: Residual activity (%) Spautin-1 5aa.

T5 sequence (Q16539 whole entry T106M): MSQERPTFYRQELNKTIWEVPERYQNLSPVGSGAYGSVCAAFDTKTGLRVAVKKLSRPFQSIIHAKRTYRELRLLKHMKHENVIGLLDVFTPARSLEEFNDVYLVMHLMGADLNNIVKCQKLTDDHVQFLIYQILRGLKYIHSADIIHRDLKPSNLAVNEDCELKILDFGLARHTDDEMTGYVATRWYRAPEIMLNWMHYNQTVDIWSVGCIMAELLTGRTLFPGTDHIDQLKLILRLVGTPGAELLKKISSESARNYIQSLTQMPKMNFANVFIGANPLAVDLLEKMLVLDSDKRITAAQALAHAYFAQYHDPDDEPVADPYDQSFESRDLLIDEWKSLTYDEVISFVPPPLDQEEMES
Chain of FGFR2(N549H)(h) (P21802 whole entry N549H): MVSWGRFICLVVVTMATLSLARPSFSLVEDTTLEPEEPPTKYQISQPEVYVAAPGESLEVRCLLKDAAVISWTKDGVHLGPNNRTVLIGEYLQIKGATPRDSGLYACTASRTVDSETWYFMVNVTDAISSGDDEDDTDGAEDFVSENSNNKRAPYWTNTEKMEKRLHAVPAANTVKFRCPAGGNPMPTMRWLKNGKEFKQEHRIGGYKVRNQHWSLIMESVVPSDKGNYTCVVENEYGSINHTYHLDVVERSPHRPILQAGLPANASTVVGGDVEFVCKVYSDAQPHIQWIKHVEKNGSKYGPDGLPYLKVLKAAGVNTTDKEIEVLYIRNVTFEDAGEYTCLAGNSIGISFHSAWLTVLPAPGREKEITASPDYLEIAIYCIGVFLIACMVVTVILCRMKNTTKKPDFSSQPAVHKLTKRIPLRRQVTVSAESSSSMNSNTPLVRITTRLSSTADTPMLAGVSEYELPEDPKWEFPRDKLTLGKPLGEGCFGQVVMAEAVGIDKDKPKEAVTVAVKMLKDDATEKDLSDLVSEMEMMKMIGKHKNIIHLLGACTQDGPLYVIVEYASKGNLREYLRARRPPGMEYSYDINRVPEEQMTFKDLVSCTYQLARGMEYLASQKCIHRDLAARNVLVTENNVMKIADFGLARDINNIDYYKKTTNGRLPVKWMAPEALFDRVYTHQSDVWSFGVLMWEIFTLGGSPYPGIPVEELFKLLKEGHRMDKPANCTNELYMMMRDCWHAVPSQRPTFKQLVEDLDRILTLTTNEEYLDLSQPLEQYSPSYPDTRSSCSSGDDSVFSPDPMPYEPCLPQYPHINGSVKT
T1 sequence (O14578 whole entry): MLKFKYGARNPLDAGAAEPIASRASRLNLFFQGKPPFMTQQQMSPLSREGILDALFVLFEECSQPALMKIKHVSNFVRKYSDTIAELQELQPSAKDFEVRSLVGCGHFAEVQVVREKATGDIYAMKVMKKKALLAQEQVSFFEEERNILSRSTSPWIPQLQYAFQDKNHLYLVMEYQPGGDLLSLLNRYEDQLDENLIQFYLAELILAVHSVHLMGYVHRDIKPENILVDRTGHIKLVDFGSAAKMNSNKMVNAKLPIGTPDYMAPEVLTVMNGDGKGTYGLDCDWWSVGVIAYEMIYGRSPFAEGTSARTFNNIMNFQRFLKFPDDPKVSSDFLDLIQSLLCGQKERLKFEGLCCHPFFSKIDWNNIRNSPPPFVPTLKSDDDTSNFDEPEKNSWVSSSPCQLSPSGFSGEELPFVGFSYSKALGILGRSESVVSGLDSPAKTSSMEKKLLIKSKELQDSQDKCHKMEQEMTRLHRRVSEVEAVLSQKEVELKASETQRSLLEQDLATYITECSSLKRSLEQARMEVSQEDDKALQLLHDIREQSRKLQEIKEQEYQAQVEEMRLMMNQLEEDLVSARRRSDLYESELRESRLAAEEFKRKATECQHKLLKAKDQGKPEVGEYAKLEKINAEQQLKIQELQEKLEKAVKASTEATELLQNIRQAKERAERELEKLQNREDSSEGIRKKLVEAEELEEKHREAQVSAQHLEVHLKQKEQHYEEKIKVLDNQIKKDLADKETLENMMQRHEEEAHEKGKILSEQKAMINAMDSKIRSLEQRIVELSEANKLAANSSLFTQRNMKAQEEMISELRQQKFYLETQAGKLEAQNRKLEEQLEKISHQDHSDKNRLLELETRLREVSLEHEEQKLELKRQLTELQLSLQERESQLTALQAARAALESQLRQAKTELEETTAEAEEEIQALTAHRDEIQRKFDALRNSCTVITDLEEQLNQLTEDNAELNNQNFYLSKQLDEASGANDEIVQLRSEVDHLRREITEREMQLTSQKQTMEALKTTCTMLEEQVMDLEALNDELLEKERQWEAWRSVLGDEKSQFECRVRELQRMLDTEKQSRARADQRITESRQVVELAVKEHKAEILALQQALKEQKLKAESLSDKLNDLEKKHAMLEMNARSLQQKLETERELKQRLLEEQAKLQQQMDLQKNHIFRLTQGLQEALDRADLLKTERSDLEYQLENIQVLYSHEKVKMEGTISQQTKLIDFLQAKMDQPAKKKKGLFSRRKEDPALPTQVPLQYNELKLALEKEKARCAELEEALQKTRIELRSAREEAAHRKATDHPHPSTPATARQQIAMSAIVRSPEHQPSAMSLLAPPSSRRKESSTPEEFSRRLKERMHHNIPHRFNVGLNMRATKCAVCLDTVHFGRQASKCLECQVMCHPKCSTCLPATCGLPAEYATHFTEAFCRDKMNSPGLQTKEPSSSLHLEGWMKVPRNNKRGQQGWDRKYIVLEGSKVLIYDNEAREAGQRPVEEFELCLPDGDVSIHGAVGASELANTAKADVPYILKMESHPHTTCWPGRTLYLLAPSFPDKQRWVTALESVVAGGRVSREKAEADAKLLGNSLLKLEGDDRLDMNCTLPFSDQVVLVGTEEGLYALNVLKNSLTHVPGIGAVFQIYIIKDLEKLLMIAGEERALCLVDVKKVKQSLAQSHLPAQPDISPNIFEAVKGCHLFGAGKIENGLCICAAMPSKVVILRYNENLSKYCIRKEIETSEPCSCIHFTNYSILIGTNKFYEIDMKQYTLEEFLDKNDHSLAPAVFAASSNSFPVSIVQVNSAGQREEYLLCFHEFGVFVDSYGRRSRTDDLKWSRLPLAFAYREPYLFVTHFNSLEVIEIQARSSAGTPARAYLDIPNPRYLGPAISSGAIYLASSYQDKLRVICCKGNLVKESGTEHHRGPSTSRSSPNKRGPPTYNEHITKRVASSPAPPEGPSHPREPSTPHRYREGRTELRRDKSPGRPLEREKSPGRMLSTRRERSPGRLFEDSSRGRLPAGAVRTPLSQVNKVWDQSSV
T6 sequence (P09619 whole entry): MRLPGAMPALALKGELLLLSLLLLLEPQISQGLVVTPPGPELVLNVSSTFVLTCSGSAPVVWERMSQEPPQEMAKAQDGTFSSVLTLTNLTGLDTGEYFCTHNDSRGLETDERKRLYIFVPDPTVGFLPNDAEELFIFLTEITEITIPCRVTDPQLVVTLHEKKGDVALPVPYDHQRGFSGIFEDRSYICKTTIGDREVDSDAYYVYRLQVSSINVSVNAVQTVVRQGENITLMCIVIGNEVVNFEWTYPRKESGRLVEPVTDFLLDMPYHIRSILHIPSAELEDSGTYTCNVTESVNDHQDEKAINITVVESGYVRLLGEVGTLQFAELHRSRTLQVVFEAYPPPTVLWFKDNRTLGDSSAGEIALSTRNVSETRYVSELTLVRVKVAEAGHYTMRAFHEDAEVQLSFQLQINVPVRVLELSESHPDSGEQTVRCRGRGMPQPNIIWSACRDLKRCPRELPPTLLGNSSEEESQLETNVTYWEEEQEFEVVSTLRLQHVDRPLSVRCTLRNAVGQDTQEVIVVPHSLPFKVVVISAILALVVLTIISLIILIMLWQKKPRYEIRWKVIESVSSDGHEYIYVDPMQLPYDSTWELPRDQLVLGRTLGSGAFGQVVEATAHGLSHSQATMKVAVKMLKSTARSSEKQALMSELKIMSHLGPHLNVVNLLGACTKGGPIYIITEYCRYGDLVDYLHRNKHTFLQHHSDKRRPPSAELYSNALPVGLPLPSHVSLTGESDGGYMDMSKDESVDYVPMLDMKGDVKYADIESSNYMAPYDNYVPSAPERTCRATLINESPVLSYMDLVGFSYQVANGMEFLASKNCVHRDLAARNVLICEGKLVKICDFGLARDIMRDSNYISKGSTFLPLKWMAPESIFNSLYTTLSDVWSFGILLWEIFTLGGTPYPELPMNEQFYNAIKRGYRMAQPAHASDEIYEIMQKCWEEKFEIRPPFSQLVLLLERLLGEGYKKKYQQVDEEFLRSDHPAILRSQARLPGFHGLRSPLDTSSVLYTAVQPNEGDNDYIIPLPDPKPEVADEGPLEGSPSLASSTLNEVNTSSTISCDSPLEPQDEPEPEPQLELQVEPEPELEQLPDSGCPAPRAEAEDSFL

Consider `Fc1ccc2ncnc(NCCc3ccc(Cl)cc3)c2c1` [5at, N-[2-(4-Chlorophenyl)Ethyl]-6-Fluoro-4-Quinazolinamine], for which the remaining activity at 10 µM in test [1] (setting [11]) worked out at 89%; in test [2] (setting [11]), 81%; in test [3] (setting [11]), 71%; in test [4] (setting [11]) it was 94%; in [5] (setting [11]) it was 103%; in [6] (setting [11]) it was 93%. In addition, the remaining activity at 10 µM came out at 109% in test [7] (setting [11]), 68% in [8] (setting [11]), 87% in test [9] (setting [11]) and 79% in test [10] (setting [11]).

On to `COc1ccc2ncnc(Nc3cccc(F)c3)c2c1` [5ay, N-(3-Fluorophenyl)-6-Methoxy-4-Quinazolinamine], for which the remaining activity at 10 µM stood at 76% in test [1] (setting [12]); 102% in [2] (setting [12]); 91% in test [3] (setting [12]); 96% in test [4] (setting [12]); 121% in test [5] (setting [12]); 69% in [6] (setting [12]). Also, the remaining activity at 10 µM stood at 113% in test [7] (setting [12]), 66% in test [8] (setting [12]), 101% in test [9] (setting [12]) and 74% in [10] (setting [12]).

Regarding `Fc1ccc(CCNc2ncnc3ccc(F)cc23)cc1` [5as, 6-Fluoro-N-[2-(4-Fluorophenyl)Ethyl]-4-Quinazolinamine], the remaining activity at 10 µM in test [1] (setting [13]) was found to be 101%; in [2] (setting [13]) it was 112%; in test [3] (setting [13]), 75%; in test [4] (setting [13]), 97%; in [5] (setting [13]), 115%; in test [6] (setting [13]), 72%. The remaining activity at 10 µM in test [7] (setting [13]) is 104%; in [8] (setting [13]) it was 80%; in test [9] (setting [13]), 114%; in test [10] (setting [13]), 84%.

For the compound `Fc1ccc(CNc2ncnc3ccc(F)cc23)cc1` [5aa, 6-Fluoro-N-(4-fluorobenzyl)-4-Quinazolinamine], the remaining activity at 10 µM is 90% in [1] (setting [14]); 98% in test [2] (setting [14]); 85% in test [3] (setting [14]); 99% in [4] (setting [14]); 95% in [5] (setting [14]); 84% in test [6] (setting [14]). Also, the remaining activity at 10 µM came to 97% in [7] (setting [14]), 72% in [8] (setting [14]), 106% in test [9] (setting [14]) and 90% in test [10] (setting [14]).
